The values that follow are results of earlier work, collected in patent US20100285127A1, “TASTE MASKED PHARMACEUTICAL COMPOSITIONS OF S-ALKYLISOTHIOURONIUM DERIVATIVES” (priority 2007, published 2010).

For the data set the following is noted: Zherebchenko 1968; Goloschapova 1981.

Take “S-ethylisothiouronium diethylphosphate [Difetur]”: the radioprotective effects entry is reported as “radioprotective effects”.
